Results on 61 molecules are retold here after a melting point compilation (Tetko et al.; mined from patent text by program, amines drawn as free bases though some values may be those of a salt).

The term melting point denotes the temperature, or range, at which the solid turns liquid. Molecule `CCOCCOCCOc1ccc(C(=O)CN(Cc2ccccc2)Cc2ccccc2)cc1C(N)=O` showed a melting point of 91.5 to 92.5 °C.
`CC(=O)NCC1=C(n2ccccc2=O)c2cc(C(F)(F)F)ccc2OC1(C)C` displayed a melting point of 174 °C.
The molecule `Cc1nn(-c2cccnc2)c(-c2cccc(Cl)c2)c1CC(=O)O` yielded a melting point of 163 °C.
For `Cc1cc(C)c2nc(CCCCl)n(-c3ccc(C(C(=O)O)C4CCCC4)cc3)c2n1` (stereo unspecified) the value was 214 °C.
As for `Cc1nc(C)c(Cl)c(NCc2ccc(Oc3ccc4ncc([N+](=O)[O-])n4n3)c(OCC3CC3)c2)n1`, the figure is 178 to 180 °C; as for `COc1cc(C(=O)N2Cc3ccc(C(=O)NCc4ccc(OC(F)(F)F)cc4)n3Cc3ccccc32)ccc1-c1ccccc1C`, 145 to 149 °C; as for `CC(C)Sc1c(C(N)=O)n(C)c2ccc(OCc3ccccc3)cc12`, 151 to 154 °C.
For `CCCCc1ncc2ccccc2c1Cc1ccc(C(=O)O)cc1` the value was 212 °C.
Molecule `Cc1cc2cc(CN3CCCCCC3)cnc2cc1NC(=O)c1ccc(-c2ccc(Cl)cc2)cc1` had a melting point of 204 °C.
In the case of `CCOC(=O)C(C)Oc1ccc(OCc2ccccc2)c(F)c1` (stereo unspecified), the melting point came out at 77 °C.
For `CCCNC(=O)C1(C/C=C/c2ccccc2)c2ccccc2-c2ccccc21` the value was 95 to 97 °C; for `CON1C(=O)CC2(CCN(C(=O)C3=CN(C)C=CC3)CC2)C1=O`, 46 to 62 °C.
The molecule `O=C(CCc1ccccc1)Nc1c(O)cc(-c2ccccc2)oc1=O` came in with a melting point of 191 to 193 °C.
Consider `CCCCC1=C(/C=C/C(=O)Oc2ccc([N+](=O)[O-])cc2)CCc2cc(OC)ccc21`, for which the melting point was 94 to 95 °C.
For `COc1ccc(C2(CCN3CCC(c4nc5ccccc5s4)CC3)CCN(C(=O)c3ccccc3)C2)cc1OC` (stereo unspecified) the value was 60 to 62 °C; for `CC(C)(C)c1cc(CCN2CCN(CCc3ccc(CC(=O)O)cc3)CC2)cc(C(C)(C)C)c1O`, 210 to 213 °C.
Molecule `CCOc1ccccc1OCC(O)CN` (single isomer, unassigned; (-)) had a melting point of 87 °C.
For `O=C(NCC1CCN(CC2(C(=O)O)CCOCC2)CC1)N1C(=O)C2(CCCC2)c2ccccc21` the value was 146 °C.
Turning to `Cc1ccc2nc(-c3ccccc3Br)ncc2c1`, the melting point was in the range of 70 to 71 °C.
The molecule `Cc1c(F)c(N)cc(Br)c1F` came in with a melting point of 68 to 68.5 °C.
For `COc1nsc(N2CCN(c3ccccn3)CC2)n1` the value was 144 to 145 °C; for `COc1ccc2ccc(OS(=O)(=O)C(F)(F)F)cc2c1`, 34 °C; for `O=C(NC(CCl)c1ccc(-c2ccc(SC(F)F)cc2)cc1)c1c(F)cccc1F` (stereo unspecified), 146 to 147 °C.
Turning to `Nc1ccc(Oc2ccccc2-c2ccccc2Oc2ccc(N)cc2)cc1`, the melting point was in the range of 157 to 158 °C.
Molecule `CCCCCCc1cc2c(s1)-n1c(C)nnc1CN=C2c1cccc(C)c1` had a melting point of 57 to 59 °C.
As for `COC(=O)C[C@H](C(=O)OC)N1C(=O)[C@@H](N2C(=O)c3ccccc3C2=O)[C@H]1C=Cc1ccccc1`, the figure is 138 to 140 °C.
For `CN1C(=O)c2cccc3c(S(C)(=O)=O)ccc1c23` the value was 216 to 218 °C; for `CC(=O)OC12Oc3cc(C(C)C)ccc3C1(OC(C)=O)C(=O)c1ccccc12` (stereo unspecified), 138 to 140 °C.
As for `CC(=O)C1CCC2C3CCC4CC(O)C(N5CCSC(C)(C)C5)CC4(C)C3C(=O)CC12C` (stereo unspecified), the figure is 202 to 203 °C.
Molecule `CC(C)NC(=O)N1N=C(c2ccc(N)cc2)c2cc(Cl)ccc2CC1C` (stereo unspecified) gave a melting point of 100 to 102 °C.
As for `O=[N+]([O-])c1cccc(/C=C/c2csc(C3CCC3)n2)c1`, the figure is 112 to 115 °C.
As for `N#Cc1ccc2c(c1)S(=O)c1ccccc1C=C2` (stereo unspecified), the figure is 220 to 222 °C; as for `COc1ccc(OC)c2c(Nc3ccc4cn[nH]c4c3)c(C#N)cnc12`, 302 to 305 °C.
For `COC(=O)CN(NC(N)=O)c1ccc(Oc2ccccc2)cc1` the value was 110 to 113 °C.
In the case of `Cc1cc(Nc2ccccc2C(=O)O)n(Cc2ccncc2)n1`, the melting point was in the range of 235 to 238 °C.
As for `COc1ccc(Cl)cc1-c1nnn(-c2ccc(C(F)(F)F)cc2Cl)c1N`, the figure is 153 °C; as for `CNC(=O)N1CC[C@H](OCc2cc(C(F)(F)F)cc(C(F)(F)F)c2)[C@H](Cc2ccccc2)C1` (relative stereo), 160 to 161 °C.
For `CC(C)(C)c1cc(SC#N)cc(C(C)(C)C)c1O` the value was 61.5 to 63 °C; for `CC(=O)N1CCOc2c(C(=O)O)cc(Cl)cc21`, 76 to 77 °C.
For `Cc1cccc(N2CC(=O)NC(=O)N2)c1` the value was 245 to 247 °C; for `N#CCCn1c2ccc(O)cc2c2c3c(c(-c4ccccc4Cl)cc21)C(=O)NC3=O`, 332 to 336 °C; for `CC1(C)OC(c2ccc(S(C)(=O)=O)cc2)=C(c2cccc(F)c2)C1=O`, 178 to 179 °C.
`Cc1ccc(NC(=O)c2cc(Cl)ccc2NCC2CCN(C3CCOCC3)CC2)nc1` returned a melting point of 166 to 168 °C.
The molecule `Cc1ccc(CNC(=O)c2cc3c(ccc4cnn(C[C@H](C)N)c43)o2)o1` had a melting point of 118 to 120 °C.
As for `NS(=O)(=O)c1nc2ccc(OCC3CO3)cc2s1` (stereo unspecified), the figure is 149 to 152 °C; as for `C=CCOC(=O)Nc1c(C#N)cnn1-c1ccc(Cl)c(Cl)c1Cl`, 154 to 155 °C; as for `CSc1ncc(C=O)c(NC2CC2)n1`, 69.5 to 70 °C.
In turn, `COc1ccc(N2c3ccccc3S(=O)(=O)c3ccccc32)cc1` displayed a melting point of 265 to 266 °C.
As for `Cc1c(C(F)(F)C(F)(F)C(F)(F)F)ncn1-c1ncc(C(F)(F)F)cc1Cl`, the figure is 62.5 °C.
As for `CCOC(=O)COc1ccc(-c2nc(-c3ccc(C)cc3)nc(-c3ccc(C)cc3)n2)c(O)c1`, the figure is 166 to 167 °C; as for `CC(=O)N1CCN(c2nccc(Oc3ccc(NC(=O)c4cc(F)cc(N5CCCCC5)c4)c4ccccc34)n2)CC1`, 102 to 104 °C.
For `O=C(CCC1CCC(=O)O1)NCCc1ccccc1` (stereo unspecified) the value was 86 to 87 °C; for `Nc1ccc2cnn(-c3ccnc(N[C@H]4CC[C@H](O)CC4)n3)c2c1`, 236 to 238 °C.
Consider `CCOC(=O)/C(=N\OCC(=O)N1CCCCC1)c1csc(N)n1`, for which the melting point was in the range of 151 to 152 °C.
In turn, `Cc1ccc(Cc2cnc(NCCCNc3ccccn3)[nH]c2=O)cn1` registered a melting point of 163 to 165 °C.
Take `S=C(NCCCCN(Cc1ccc(Br)cc1)c1ccccn1)NCCCn1ccnc1`: the melting point lay within 122 to 124 °C.
As for `CCN(CC)C(=O)CCc1cc2ccccc2c(-c2ccccc2)n1`, the figure is 70 °C; as for `Cn1nc(CNS(C)(=O)=O)nc1NCCCOc1cccc(CN2CCCCC2)c1`, 117 to 118 °C; as for `O=Cc1c(Cl)cc(Cl)cc1OCc1ccccc1`, 98 to 100 °C.
For `CCCCCCc1nc2c(N)nc3ccccc3c2n1CCCCNC(=O)Nc1ccccc1` the value was 170 to 172 °C; for `CC(=O)Nc1ccccc1C=C1c2ccccc2CCc2ccccc21`, 190 °C.
